In PubChem BioAssay (NCI):
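How tested: cells in 96-well plates exposed to compound for 48 hours at five concentrations. GI50 is the concentration that inhibits growth by half. TGI: concentration producing complete growth inhibition.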

Tests used:
Assay in all cases: NCI-60 cell line screen, 48 h
A498 renal = system: A498 renal
SK-MEL-5 melanoma = system: SK-MEL-5 melanoma
LOX IMVI melanoma = system: LOX IMVI melanoma
UACC-257 melanoma = system: UACC-257 melanoma
SF-295 CNS = system: SF-295 CNS
OVCAR-3 ovarian = system: OVCAR-3 ovarian
OVCAR-5 ovarian = system: OVCAR-5 ovarian
RXF 393 renal = system: RXF 393 renal
SK-MEL-2 melanoma = system: SK-MEL-2 melanoma
U251 CNS = system: U251 CNS
HCT-15 colon = system: HCT-15 colon
ACHN renal = system: ACHN renal
HOP-92 NSCLC = system: HOP-92 NSCLC
SN12C renal = system: SN12C renal
MALME-3M melanoma = system: MALME-3M melanoma
KM12 colon = system: KM12 colon
MDA-MB-231 breast = system: MDA-MB-231 breast
SF-539 CNS = system: SF-539 CNS
M14 melanoma = system: M14 melanoma
PC-3 prostate = system: PC-3 prostate
HT29 colon = system: HT29 colon
OVCAR-4 ovarian = system: OVCAR-4 ovarian
786-0 renal = system: 786-0 renal
HOP-62 NSCLC = system: HOP-62 NSCLC
TK-10 renal = system: TK-10 renal
T-47D breast = system: T-47D breast
UACC-62 melanoma = system: UACC-62 melanoma
NCI-H226 lung = system: NCI-H226 lung
COLO 205 colon = system: COLO 205 colon
MCF7 breast = system: MCF7 breast
NCI-H522 lung = system: NCI-H522 lung
HCT-116 colon = system: HCT-116 colon
EKVX NSCLC = system: EKVX NSCLC
SK-OV-3 ovarian = system: SK-OV-3 ovarian
RPMI-8226 leukemia = system: RPMI-8226 leukemia
NCI-H23 lung = system: NCI-H23 lung
IGROV1 ovarian = system: IGROV1 ovarian
HCC-2998 colon = system: HCC-2998 colon
A549 NSCLC = system: A549 NSCLC
SNB-75 CNS = system: SNB-75 CNS
OVCAR-8 ovarian = system: OVCAR-8 ovarian
K-562 leukemia = system: K-562 leukemia
HL-60(TB) leukemia = system: HL-60(TB) leukemia
HS 578T breast = system: HS 578T breast
NCI/ADR-RES ovarian = system: NCI/ADR-RES ovarian
MOLT-4 leukemia = system: MOLT-4 leukemia
MDA-MB-435 = system: MDA-MB-435
CCRF-CEM leukemia = system: CCRF-CEM leukemia
SR leukemia = system: SR leukemia
SK-MEL-28 melanoma = system: SK-MEL-28 melanoma
UO-31 renal = system: UO-31 renal
DU-145 prostate = system: DU-145 prostate
NCI-H460 lung = system: NCI-H460 lung
SF-268 CNS = system: SF-268 CNS
CAKI-1 renal = system: CAKI-1 renal
SNB-19 CNS = system: SNB-19 CNS
BT-549 breast = system: BT-549 breast
SW-620 colon = system: SW-620 colon

O=C1CCCc2cc3c(cc21)CC1(Cc2ccccc2C1)C3
TGI (A498 renal): 67000 nM | TGI (SK-MEL-5 melanoma): 16200 nM | TGI (LOX IMVI melanoma): 28600 nM | TGI (UACC-257 melanoma): 20200 nM | TGI (SF-295 CNS): 21500 nM | TGI (OVCAR-3 ovarian): 6100 nM | TGI (OVCAR-5 ovarian): > 100000 nM | TGI (RXF 393 renal): 82500 nM | TGI (SK-MEL-2 melanoma): > 100000 nM | TGI (U251 CNS): 64000 nM | TGI (HCT-15 colon): 24400 nM | TGI (ACHN renal): 32900 nM | TGI (HOP-92 NSCLC): 53000 nM | TGI (SN12C renal): 41000 nM | TGI (MALME-3M melanoma): 70100 nM | TGI (KM12 colon): 13700 nM | TGI (MDA-MB-231 breast): 46600 nM | TGI (SF-539 CNS): 18700 nM | TGI (M14 melanoma): 25300 nM | TGI (PC-3 prostate): > 100000 nM | TGI (HT29 colon): 8600 nM | TGI (OVCAR-4 ovarian): 63900 nM | TGI (786-0 renal): 29600 nM | TGI (HOP-62 NSCLC): 32600 nM | TGI (TK-10 renal): > 100000 nM | TGI (T-47D breast): 96900 nM | TGI (UACC-62 melanoma): > 100000 nM | TGI (NCI-H226 lung): 12800 nM | TGI (COLO 205 colon): 5110 nM | TGI (MCF7 breast): 61200 nM | TGI (NCI-H522 lung): 21500 nM | TGI (HCT-116 colon): 13600 nM | TGI (EKVX NSCLC): > 100000 nM | TGI (SK-OV-3 ovarian): 97300 nM | TGI (RPMI-8226 leukemia): 25700 nM | TGI (NCI-H23 lung): > 100000 nM | TGI (IGROV1 ovarian): > 100000 nM | TGI (HCC-2998 colon): 39300 nM | TGI (A549 NSCLC): 43300 nM | TGI (SNB-75 CNS): 3000 nM | TGI (OVCAR-8 ovarian): 43700 nM | TGI (K-562 leukemia): 7740 nM | TGI (HL-60(TB) leukemia): 5020 nM | TGI (HS 578T breast): > 100000 nM | TGI (NCI/ADR-RES ovarian): > 100000 nM | TGI (MOLT-4 leukemia): 19300 nM | TGI (MDA-MB-435): 4610 nM

CCN1CCN(Cc2ccc(NC(=O)c3cccc(C#Cc4cccc5[nH]nc(N)c45)c3)cc2C(F)(F)F)CC1
GI50 (A498 renal): 108 nM | TGI (A498 renal): 1070 nM | GI50 (UACC-257 melanoma): 1050 nM | TGI (UACC-257 melanoma): 2820 nM | GI50 (CCRF-CEM leukemia): 778 nM | TGI (CCRF-CEM leukemia): 3960 nM | GI50 (OVCAR-3 ovarian): 615 nM | TGI (OVCAR-3 ovarian): 2170 nM | GI50 (SR leukemia): 238 nM | TGI (SR leukemia): 732 nM | GI50 (OVCAR-5 ovarian): 685 nM | TGI (OVCAR-5 ovarian): 2070 nM | GI50 (RXF 393 renal): 287 nM | TGI (RXF 393 renal): 918 nM | GI50 (SK-MEL-2 melanoma): 352 nM | TGI (SK-MEL-2 melanoma): 1340 nM | GI50 (SK-MEL-28 melanoma): 568 nM | TGI (SK-MEL-28 melanoma): 1780 nM | GI50 (UO-31 renal): 299 nM | TGI (UO-31 renal): 1280 nM | GI50 (DU-145 prostate): 419 nM | TGI (DU-145 prostate): 1680 nM | GI50 (NCI-H460 lung): 390 nM | TGI (NCI-H460 lung): 1660 nM | GI50 (ACHN renal): 180 nM | TGI (ACHN renal): 933 nM | GI50 (HOP-92 NSCLC): 350 nM | TGI (HOP-92 NSCLC): 1890 nM | GI50 (SN12C renal): 584 nM | TGI (SN12C renal): 1930 nM | GI50 (MALME-3M melanoma): 27.3 nM | TGI (MALME-3M melanoma): 422 nM | GI50 (KM12 colon): 302 nM | TGI (KM12 colon): 1330 nM | GI50 (MDA-MB-231 breast): 120 nM | TGI (MDA-MB-231 breast): 573 nM | GI50 (SF-268 CNS): 620 nM | TGI (SF-268 CNS): 2010 nM | GI50 (SF-539 CNS): 205 nM | TGI (SF-539 CNS): 709 nM | GI50 (M14 melanoma): 62.2 nM | TGI (M14 melanoma): 547 nM | GI50 (PC-3 prostate): 1360 nM | TGI (PC-3 prostate): 3130 nM | GI50 (HT29 colon): 118 nM | TGI (HT29 colon): 1160 nM | GI50 (OVCAR-4 ovarian): 198 nM | TGI (OVCAR-4 ovarian): 1610 nM | GI50 (CAKI-1 renal): 485 nM | TGI (CAKI-1 renal): 1760 nM | GI50 (786-0 renal): 402 nM | TGI (786-0 renal): 1320 nM | GI50 (SNB-19 CNS): 1070 nM | TGI (SNB-19 CNS): 2300 nM | GI50 (TK-10 renal): 631 nM | TGI (TK-10 renal): 1750 nM | GI50 (T-47D breast): 975 nM | TGI (T-47D breast): 3390 nM | GI50 (UACC-62 melanoma): 509 nM | TGI (UACC-62 melanoma): 1770 nM | GI50 (COLO 205 colon): 185 nM | TGI (COLO 205 colon): 1280 nM | GI50 (EKVX NSCLC): 1410 nM | TGI (EKVX NSCLC): 2730 nM | GI50 (SK-OV-3 ovarian): 802 nM | TGI (SK-OV-3 ovarian): 2200 nM | GI50 (RPMI-8226 leukemia): 702 nM | TGI (RPMI-8226 leukemia): 3040 nM | GI50 (BT-549 breast): 1100 nM | TGI (BT-549 breast): 2410 nM | GI50 (IGROV1 ovarian): 68.1 nM | TGI (IGROV1 ovarian): 717 nM | GI50 (A549 NSCLC): 1130 nM | TGI (A549 NSCLC): 2480 nM | GI50 (SNB-75 CNS): 184 nM | TGI (SNB-75 CNS): 890 nM | GI50 (SW-620 colon): 343 nM | TGI (SW-620 colon): 1590 nM | GI50 (OVCAR-8 ovarian): 395 nM | TGI (OVCAR-8 ovarian): 1530 nM | TGI (K-562 leukemia): 154 nM | GI50 (HL-60(TB) leukemia): 97.9 nM | TGI (HL-60(TB) leukemia): 1040 nM | GI50 (HS 578T breast): 518 nM | TGI (HS 578T breast): 3190 nM | GI50 (NCI/ADR-RES ovarian): 1590 nM | TGI (NCI/ADR-RES ovarian): 5210 nM | GI50 (MOLT-4 leukemia): 227 nM | TGI (MOLT-4 leukemia): 1160 nM | GI50 (MDA-MB-435): 339 nM | TGI (MDA-MB-435): 1570 nM
